Tests used:
[1] = test system: uncarboxylated osteocalcin relative to total osteocalcin; experiment: Vitamin K status by ucOC/tOC ratio in renal transplant recipients treated with menaquinone-7 (Experiment 5); type: in vivo, renal transplant recipients (human)
Excerpt: In yet a further aspect, vitamin K used according to the present invention is to be administered to specific groups of subjects. As already stated supra, mammalian subjects according to the invention are in particular human subjects. Vitamin K may, in the context of the invention, be administered to healthy or apparently healthy human subjects, preferably healthy or apparently healthy adult human subjects, which may benefit from vitamin K supplementation. In particular, these subjects are characterized in that they have a regular vitamin K status and a normal thrombosis risk, particularly a normal venous thrombosis risk. The vitamin K status may e.g. be determined using the ucOC/tOC ratio, i.e. the amount of circulating uncarboxylated osteocalcin (ucOC) relative to the total amount of osteocalcin (tOC). The vitamin K status may also be determined using other methods, e.g. the carboxylation degree of the vascular Gla-protein MGP, but since this assay is not yet commercially available, the ucOC/tOC ratio will be used throughout this document.
In the present study, a group of 32 RTR were randomly subdivided into 4 groups of 8 subjects each and compared with 24 age- and sex-matched healthy volunteers.
The RTR were treated with the following doses of vitamin K2 (menaquinone-7) for 3 months: 0, 90, 180 and 360 μg/day. Blood was taken at baseline and at the end of the study to prepare EDTA plasma and serum. Vitamin K status was assessed by measuring the ucOC/tOC ratio and the thrombosis tendency was estimated from the ETP values.

[2] = test system: Endogenous Thrombin Potential (thrombin generation in plasma); experiment: ETP in renal transplant recipients treated with menaquinone-7 (Experiment 5); type: in vivo, renal transplant recipients (human)
Excerpt: (§1) There are several ways in which thrombosis tendency or increased thrombosis risk may be established, but most of them are based on one of the two following principles: • a) Citrated plasma is collected by venipuncture and clotting is induced by adding tissue factor (thromboplastin) and recalcification. The time required to clot is compared to the clotting time of a reference sample and expressed as International Normalized Ratio (INR). This method is sensitive for monitoring patients during anticoagulation treatment (INR>2.0), but insensitive for INR values<1.0 (increased thrombosis risk). • b) Citrated plasma is collected by venipuncture, defibrinated and the conversion of prothrombin into thrombin is initiated by adding tissue factor and calcium. The total amount of thrombin generated in a certain time period is expressed as Endogenous Thrombin Potential (ETP), whereas also other kinetic characteristics (thrombin peak height, time to peak) provide additional information (E. De Smedt, R. Al Dieri, H. M. Spronk, K. Hamulyak, H. ten Cate, H. C. Hemker: Thromb. Haemost. 2008; 100:343-349).
The ETP reflects the amount of thrombin that can be formed in a period of time following activation of platelet-poor plasma. The amount of thrombin generated is monitored using a chromogenic substrate for thrombin, and results from three independent principles: the circulating concentration of coagulation factors, the concentration of coagulation inhibitors (proteins C and S) and the concentration of thrombin inhibitors such as antithrombin III. Typical ETP curves show a rapid increase of thrombin formed in the first 6-8 minutes after activation, followed by a decline caused by thrombin inhibitors such as antithrombin III. […] Generally, the ETP is expressed as the area under the curve during the first 30 minutes of thrombin formation. […]
The RTR were treated with the following doses of vitamin K2 (menaquinone-7) for 3 months: 0, 90, 180 and 360 μg/day. […] Vitamin K status was assessed by measuring the ucOC/tOC ratio and the thrombosis tendency was estimated from the ETP values.

[3] = test system: Endogenous Thrombin Potential (thrombin generation in plasma); experiment: ETP at baseline and after one year of vitamin K1 by tertile of vitamin K status (Experiment 3); type: in vivo, postmenopausal women; conditions: 1 mg/day, group with the highest ucOC/tOC ratio (0.20, n=19), only in this group
Excerpt: as §1, with “This method is sensitive for monitoring patients during anticoagulation treatment (INR>2.0), but insensitive for INR values<1.0 (increased thrombosis risk). • b) Citrated plasma is collected by venipuncture, defibrinated and the conversion of prothrombin into thrombin is initiated by adding tissue factor and calcium.” left out
The ETP reflects the amount of thrombin that can be formed in a period of time following activation of platelet-poor plasma. The amount of thrombin generated is monitored using a chromogenic substrate for thrombin, and results from three independent principles: the circulating concentration of coagulation factors, the concentration of coagulation inhibitors (proteins C and S) and the concentration of thrombin inhibitors such as antithrombin III. […] Generally, the ETP is expressed as the area under the curve during the first 30 minutes of thrombin formation. […]

SMILES	change of ucOC/tOC ratio with dose ([1]; 0, 90, 180 and 360 μg/day, 3 months, FIG. 5A)	decline of ucOC/tOC ratio compared to baseline ([1]; 180 and 360 μg/day, 3 months)	difference in ucOC/tOC ratio between the 0 μg/day and the 360 μg/day intake groups ([1]; t=3 months)	change of ETP with dose ([2]; 0, 90, 180 and 360 μg/day, 3 months, FIG. 5B)	decline of ETP compared to baseline ([2]; 180 and 360 μg/day, 3 months)	difference in ETP between the 0 μg/day and the 360 μg/day intake groups ([2]; t=3 months)	change of ETP after vitamin K supplementation [3]
CC(C)=CCC/C(C)=C/CC/C(C)=C/CC/C(C)=C/CC/C(C)=C/CC/C(C)=C/CC/C(C)=C/CC1=C(C)C(=O)c2ccccc2C1=O [menaquinone-7]	decreased in a dose-dependent way	statistically significant	significant	decreased at increasing doses	statistically significant	significant	–
CC1=C(C/C=C(\C)CCC[C@H](C)CCC[C@H](C)CCCC(C)C)C(=O)c2ccccc2C1=O [vitamin K1, phylloquinone]	–	–	–	–	–	–	declined significantly

Source: patent US20160310445A1, “PREVENTION AND COUNTERACTION OF DIET-INDUCED THROMBOSIS RISK” (VITAK BV, priority 2013, published 2016)
